The nature of data set [1]: Pharmacokinetic clearance in intravenously dosed rats. It is filed as in vivo. The following applies: male, Sprague-Dawley, rat, whole blood, iv, 0.5 mg/kg. The protocol:
Sprague-Daley rats were administered sGC activators intravenously to assess the systemic clearance rates of the compounds from blood by non-compartmental analysis. Compounds with high clearance rates may be less prone to exert unwanted systemic (non-local) pharmocoligcal effects, which may be a benefical property for a compound intended to be dosed via topical ocular administration with the aim of exerting a pharmacological reponse locally in the eye.
In order to assess the pharmacokinetic parameters, male Sprague-Dawley rats were given 1 mL/Kg of the dosing solution (delineated in the table below) containing a test article (0.5 mg/kg) per kg of body weight via slow intravenous injection into an indwelling jugular vein catheter in a discrete PK study. Alternatively, male Sprague-Dawley rats were given 1 mL/Kg of the dosing solution containing three test articles (0.5 mg/kg each, 1.5 mg/kg total) per kg of body weight via slow intravenous injection into an indwelling jugular vein catheter in a cassette PK study. Diet and water was provided ad libitum without exception. At specified time following a single intravenous bolus injection, approximately 100 μL of whole blood was collected from indwelling catheter in jugular vein. The blood was stored frozen at −20° C. before an LC-MS/MS method was used to quantitate drug levels in the blood. All pharmacokinetic (PK) parameters were derived from concentration-time data by non-compartmental analyses using WinNonlin Phoenix version 6.4 (Certara, St. Louis, Mo.). For the intravenous dose, the concentration of unchanged compound at time 0 was calculated based on a log-linear regression of first two data points to back-extrapolate C(0). The area under the concentration-time curve was calculated using the linear trapezoidal rule.
Data in Table 2 collected using the assay of Biological Example 2 compares compounds from the present invention to other sGC activators previously disclosed PCT/IB2015/055006 filed Jul.

In data set [2] the target is T1, soluble guanylate cyclase (GUCYA3/GUCYB3) overexpressed in CHO cells (Homo sapiens, UniProt Q02108+Q02153).
T1 construct: expressed in transfected cells
T1 sequence (Q02108 1-690 partner): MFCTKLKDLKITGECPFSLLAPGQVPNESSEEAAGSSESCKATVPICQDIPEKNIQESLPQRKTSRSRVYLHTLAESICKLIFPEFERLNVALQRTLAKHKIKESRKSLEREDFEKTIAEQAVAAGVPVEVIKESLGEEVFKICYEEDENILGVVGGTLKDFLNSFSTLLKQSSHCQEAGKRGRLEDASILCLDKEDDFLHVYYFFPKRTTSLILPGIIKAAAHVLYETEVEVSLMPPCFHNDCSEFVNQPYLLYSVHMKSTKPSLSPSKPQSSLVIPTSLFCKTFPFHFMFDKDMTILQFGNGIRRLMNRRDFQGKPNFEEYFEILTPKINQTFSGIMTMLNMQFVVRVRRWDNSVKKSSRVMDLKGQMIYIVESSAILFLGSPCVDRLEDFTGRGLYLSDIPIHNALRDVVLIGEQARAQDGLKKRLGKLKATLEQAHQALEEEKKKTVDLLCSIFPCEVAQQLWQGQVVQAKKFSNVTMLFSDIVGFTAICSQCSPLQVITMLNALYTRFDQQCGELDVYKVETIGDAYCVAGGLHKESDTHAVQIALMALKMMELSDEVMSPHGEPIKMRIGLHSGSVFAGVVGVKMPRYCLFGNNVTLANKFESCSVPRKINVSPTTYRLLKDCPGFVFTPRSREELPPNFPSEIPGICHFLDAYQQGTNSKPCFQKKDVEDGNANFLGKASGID
T1 sequence (Q02153 1-619): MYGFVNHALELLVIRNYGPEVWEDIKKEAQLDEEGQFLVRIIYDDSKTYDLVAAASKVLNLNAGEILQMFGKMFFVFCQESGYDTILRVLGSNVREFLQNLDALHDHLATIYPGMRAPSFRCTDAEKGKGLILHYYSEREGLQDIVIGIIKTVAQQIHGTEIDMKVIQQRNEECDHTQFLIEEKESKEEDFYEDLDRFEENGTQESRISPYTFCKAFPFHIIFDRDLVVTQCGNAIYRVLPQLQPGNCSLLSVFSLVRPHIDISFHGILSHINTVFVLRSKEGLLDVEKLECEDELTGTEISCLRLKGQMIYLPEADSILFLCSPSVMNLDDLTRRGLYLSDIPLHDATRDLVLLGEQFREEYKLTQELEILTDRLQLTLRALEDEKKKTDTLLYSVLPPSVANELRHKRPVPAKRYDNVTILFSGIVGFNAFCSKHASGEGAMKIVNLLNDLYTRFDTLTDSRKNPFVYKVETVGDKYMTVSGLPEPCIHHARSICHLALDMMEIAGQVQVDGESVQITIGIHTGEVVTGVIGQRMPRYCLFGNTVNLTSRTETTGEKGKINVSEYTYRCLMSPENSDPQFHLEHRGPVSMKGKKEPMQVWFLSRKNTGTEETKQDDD
Put plainly: CHO cellular assay (cGMP production, HTRF). It is filed as cell-based. The text has this: Chinese hamster ovary (CHO) cells overexpressing soluble guanylate cyclase were generated to test the effect of sGC activators in a cellular context. Human cDNAs for GUCYA3 (RefSeq: NM_000856.3) and GUCYB3 (RefSeq: NM_000857.1) were amplified by PCR from a HUVEC (Human Umbilical Vein Endothelial Cells) cDNA library and cloned into mammalian expression vectors. CHO K1 cells (ATCC CCL-61) were transfected using Lipofectamine 2000 following manufacturer's instructions and stably expressing clones were identified by antibiotic selection. CHO GUCY clone 8E10 was used for subsequent experiments.
Cells were seeded at a density of 3000 cells/well in white 384-well proxyplates (Perkin Elmer) and incubated overnight, then the medium was removed and cells were washed with assay buffer (HBSS, 0.1% BSA, 1 mM IBMX, 20 uM ODQ). sGC activators were serially diluted in DMSO, then diluted in assay buffer prior to adding to cells (10 ul/well, final DMSO concentration 0.5%). Cells were incubated with compounds for 1 h at room temperature, then assayed for cGMP production using Cisbio cGMP HTRF kit (62GM2PEC) according to manufacturer's instructions.
The EC50s are calculated based on the amount of cGMP interpolated from the standard curve, using a 4-parameter sigmoidal dose-response.
Compounds of invention are active on sGC activation. Data in Table 1 collected using the assay of Biological Example 1.

[3] abbreviates: i.v. 0.5 mg/kg each, three test articles, Cassette - E (10% propylene glycol, 10% Solutol HS15, PBS).
[4] abbreviates: i.v. 0.5 mg/kg, Discrete - D (10% propylene glycol, 10% Solutol HS15, PBS).
Setting [5] is: CHO cellular assay, as repeated in Table 2, read-out: EC50 from biological Example #1.
The mark [6] stands for this setting: CHO GUCY clone 8E10, assay buffer with 1 mM IBMX, 20 uM ODQ, 1 h at room temperature, cGMP HTRF, quantification limit 0.0005 μM, read-out: Mean EC50.

Where two headings read alike, the source gives them in different places. Where only a bound is given, the exact number is not on record here.

In the case of `Cc1cc(C2CCN(C(=O)C3CC3)CC2)ccc1CC1CCc2cccc(-c3cccc(-n4ncc(C(=O)O)c4C)n3)c21` (single isomer, unassigned; (+)) [(+)-1-(6-(3-(4-(1-(cyclopropanecarbonyl)piperidin-4-yl)-2-methylbenzyl)-2,3-dihydro-1H-inden-4-yl)pyridin-2-yl)-5-methyl-1H-pyrazole-4-carboxylic acid], the clearance is 97.2 mL/min/kg in data set [1] (setting [3]) and 25.6 mL/min/kg in data set [1] (setting [4]). Also, the EC50 in data set [2] (setting [5]) was under 0.5 nM.
In data set [1] (setting [3]), `Cc1cc(C2CCN(C(=O)[C@H](C)O)CC2)ccc1NC1CCc2cccc(-c3cccc(-n4ncc(C(=O)O)c4C)n3)c21` (single isomer, unassigned; (+)) [reference compound] registered a clearance of 48.3 mL/min/kg. The EC50 in data set [2] (setting [5]) was under 0.5 nM.
With `Cc1cc(C2CCN(C(=O)C3CC3)CC2)ccc1NC1CCc2cccc(-c3cccc(-n4ncc(C(=O)O)c4C)c3)c21` (single isomer, unassigned; (+)) [(+)-1-(3-(3-((4-(1-(cyclopropanecarbonyl)piperidin-4-yl)-2-methylphenyl)amino)-2,3-dihydro-1H-inden-4-yl)phenyl)-5-methyl-1H-pyrazole-4-carboxylic acid, reference compound], in data set [1] (i.v. 0.5 mg/kg each, three test articles, Cassette - F (20% propylene glycol, 10% Solutol HS15, PBS)), the clearance is 24.9 mL/min/kg. The EC50 in data set [2] (setting [5]) is under 0.5 nM.
For `CCc1cc(O[C@H]2CCc3cccc(-c4cccc(-n5ncc(C(=O)O)c5OC)c4)c32)ccc1C1CCN(C(=O)C2CC2)CC1` [Example 5, (+)-(S)-1-(3-(3-(4-(1-(Cyclopropanecarbonyl)piperidin-4-yl)-3-ethylphenoxy)-2,3-dihydro-1H-inden-4-yl)phenyl)-5-methoxy-1H-pyrazole-4-carboxylic acid], in data set [1] (setting [4]), the clearance turned out to be 89 mL/min/kg. The EC50 in data set [2] (setting [6]) and in data set [2] (setting [5]) was under 0.5 nM throughout.
In turn, `CCc1cc(N[C@H]2CCc3cccc(-c4cccc(-n5ncc(C(=O)O)c5OC)c4)c32)ccc1C1CCN(C(=O)C2CC2)CC1` [Example 3A, (+)-(S)-1-(3-(3-((4-(1-(Cyclopropanecarbonyl)piperidin-4-yl)-3-ethylphenyl)amino)-2,3-dihydro-1H-inden-4-yl)phenyl)-5-methoxy-1H-pyrazole-4-carboxylic acid] registered a clearance in data set [1] (i.v. 0.5 mg/kg, Discrete - B (20% PEG 300, 1 eq NaOH, 10% Solutol HS15, PBS)) of over 100 mL/min/kg. Moreover, the concentration for a half-maximal effect (EC50) in data set [2] (setting [6]) and in data set [2] (setting [5]) was under 0.5 nM in each case.
Take `CCc1cc(NC2CCc3cccc(-c4cccc(-n5ncc(C(=O)O)c5N)n4)c32)ccc1C1CCN(C(=O)C2CC2)CC1` (single isomer, unassigned; (+)) [Example 18A, (+)-5-Amino-1-(6-(3-((4-(1-(cyclopropanecarbonyl)piperidin-4-yl)-3-ethylphenyl)amino)-2,3-dihydro-1H-inden-4-yl)pyridin-2-yl)-1H-pyrazole-4-carboxylic acid]: in data set [1] (setting [4]), the clearance was 98 mL/min/kg. The EC50 in data set [2] (setting [6]) and in data set [2] (setting [5]) was 7 nM in each case.
`CCc1cc(C[C@H]2CCc3cccc(-c4cccc(-n5ncc(C(=O)O)c5OC)c4)c32)ccc1C1CCN(C(=O)C2CC2)CC1` [Example 1A, (+)-(R)-1-(3-(3-(4-(1-(Cyclopropanecarbonyl)piperidin-4-yl)-3-ethylbenzyl)-2,3-dihydro-1H-inden-4-yl)phenyl)-5-methoxy-1H-pyrazole-4-carboxylic acid] gave a clearance in data set [1] (i.v. 0.5 mg/kg, Discrete - A (10% propylene glycol, 1 eq NaOH, 25% of 20% Solutol HS15, PBS)) of over 100 mL/min/kg. In addition, the EC50 in data set [2] (setting [6]) and in data set [2] (setting [5]) was under 0.6 nM throughout.
`CCc1cc(NC2CCc3cccc(-c4cccc(-n5ncc(C(=O)O)c5CC)n4)c32)ccc1C1=CCN(C(=O)C2CC2)CC1` (single isomer, unassigned; (+)) [(+)-1-(6-(3-((4-(1-(cyclopropanecarbonyl)-1,2,3,6-tetrahydropyridin-4-yl)-3-ethylphenyl)amino)-2,3-dihydro-1H-inden-4-yl)pyridin-2-yl)-5-ethyl-1H-pyrazole-4-carboxylic acid, reference compound] had a clearance in data set [1] (setting [4]) of 38 mL/min/kg. Besides, in data set [2] (setting [5]), the EC50 was under 0.5 nM.
`CCc1cc(NC2CCc3cccc(-c4cccc(-n5ncc(C(=O)O)c5OC)c4)c32)ccc1C1CCN(C(=O)[C@H](C)O)CC1` (single isomer, unassigned; (+)) [Example 4A] registered a clearance in data set [1] (i.v. 0.5 mg/kg, Discrete - C (20% PEG 300, 10% Solutol HS15, PBS)) of over 100 mL/min/kg. Besides, the EC50 in data set [2] (setting [6]) and in data set [2] (setting [5]) was under 0.5 nM each time.
Consider `CCc1nc(NC2CCc3cccc(-c4cccc(-n5ncc(C(=O)O)c5OC)n4)c32)ccc1C1=CCN(C(=O)[C@H](C)O)CC1` (single isomer, unassigned) [Example 17B, 1-(6-((S or R)-3-((2-ethyl-1′-((S)-2-hydroxypropanoyl)-1′,2′,3′,6′-tetrahydro-[3,4′-bipyridin]-6-yl)amino)-2,3-dihydro-1H-inden-4-yl)pyridin-2-yl)-5-methoxy-1H-pyrazole-4-carboxylic acid], for which the EC50 in data set [2] (setting [6]) turned out to be 3.5 nM.
For `CCc1nc(NC2CCc3cccc(-c4cccc(-n5ncc(C(=O)O)c5OC)n4)c32)ccc1C1=CCN(C(=O)[C@H](C)O)CC1` (single isomer, unassigned) [Example 17A, 1-(6-((R or S)-3-((2-ethyl-1′-((S)-2-hydroxypropanoyl)-1′,2′,3′,6′-tetrahydro-[3,4′-bipyridin]-6-yl)amino)-2,3-dihydro-1H-inden-4-yl)pyridin-2-yl)-5-methoxy-1H-pyrazole-4-carboxylic acid], the EC50 in data set [2] (setting [6]) worked out at 71 nM.

The record behind these values is patent US10316020B2, “Indane derivatives and the use thereof as soluble guanylate cyclase activators” (NOVARTIS AG, priority 2015, dated 2019).
